# Results published in patent US20240083898A1, “TRICYCLIC TRIAZOLO COMPOUNDS AS DGK INHIBITORS” (Incyte Corporation, priority 2022, published 2024).
# Columns and labels:
# DGKζ = target: T1, DGKζ (Homo sapiens, UniProt Q13574); test: In vitro DGKζ inhibition assay (ADP-Glo); assay type: biochemical; details: His-tagged human recombinant enzyme, 0.4 nM DGKζ, 30 μM ATP, 20 μM DLG, 90 minute incubation
# T1 construct: His; purchased Signal Chem D30-10H
# Experimental: (§1) The DGKα and DGKζ biochemical reactions were performed using His-tagged human recombinant enzymes (Signal Chem, DGKα, #D21-10BH; DGKζ, #D30-10H)) and DLG (Dilauroyl-sn-glycerol) lipid substrate (Signal Chem, #D430-59). ADP-Glo assay was performed using ADP-Glo™ kinase Assay kit (Promega, #V9104). The reactions were carried out in assay buffer containing 40 mM Tris, pH 7.5, 0.1% CHAPS, 0.1% Prionex, 40 mM NaCl, 5 mM MgCl2, 1 mM CaCl2, and 1 mM DTT. DGKα reactions contained 0.1 nM DGKα, 50 μM ATP, and 20 μM DLG. And DGKζ reactions contained 0.4 nM DGKζ, 30 μM ATP, and 20 μM DLG.
# (§2) For compound inhibition studies, 40 nL test compound in DMSO was added to wells of white polystyrene plates in 384-well (Greiner, #784075) or 1536-well format (Greiner, #782075). Compounds were added with top concentration of 2 mM with 11 point, 3-fold dilution series. Enzyme solution (contains 2× DGK enzyme concentration in 1× assay buffer) was added to the plate in 2 μL/well volume, followed by 2 μL/well of substrate solution (contains 2× concentration of ATP and DLG substrate in 1× assay buffer). Plates were then centrifuged for 1 min at 1200 RPM and sealed or lidded. For 4 μL reaction volume, test compounds were therefore diluted 100× to final top concentration of 20 μM. After 90 minute incubation, reactions were quenched by addition of 2 μL/well Promega ADP-Glo Reagent, followed by centrifugation and lidding. After 60 min incubation, 2 μL/well Promega Kinase Detection Reagent was added, plates centrifuged, and incubated for 30 min. Plates were then read using Luminescence method on BMG PHERAstar FSX plate reader. Percent inhibition was calculated and IC50s were determined using 4-parameter fit in Genedata Screener. Labcyte Echo acoustic dispenser was used for compound addition, and Formulatrix Tempest liquid handler was used for all reagent dispenses.
# DGKα = target: T2, DGKα (Homo sapiens, UniProt P23743); test: In vitro DGKα inhibition assay (ADP-Glo); assay type: biochemical; details: His-tagged human recombinant enzyme, 0.1 nM DGKα, 50 μM ATP, 20 μM DLG, 90 minute incubation
# T2 construct: His; purchased Signal Chem D21-10BH
# Experimental: as §1, §2
# T2 sequence (P23743 whole entry): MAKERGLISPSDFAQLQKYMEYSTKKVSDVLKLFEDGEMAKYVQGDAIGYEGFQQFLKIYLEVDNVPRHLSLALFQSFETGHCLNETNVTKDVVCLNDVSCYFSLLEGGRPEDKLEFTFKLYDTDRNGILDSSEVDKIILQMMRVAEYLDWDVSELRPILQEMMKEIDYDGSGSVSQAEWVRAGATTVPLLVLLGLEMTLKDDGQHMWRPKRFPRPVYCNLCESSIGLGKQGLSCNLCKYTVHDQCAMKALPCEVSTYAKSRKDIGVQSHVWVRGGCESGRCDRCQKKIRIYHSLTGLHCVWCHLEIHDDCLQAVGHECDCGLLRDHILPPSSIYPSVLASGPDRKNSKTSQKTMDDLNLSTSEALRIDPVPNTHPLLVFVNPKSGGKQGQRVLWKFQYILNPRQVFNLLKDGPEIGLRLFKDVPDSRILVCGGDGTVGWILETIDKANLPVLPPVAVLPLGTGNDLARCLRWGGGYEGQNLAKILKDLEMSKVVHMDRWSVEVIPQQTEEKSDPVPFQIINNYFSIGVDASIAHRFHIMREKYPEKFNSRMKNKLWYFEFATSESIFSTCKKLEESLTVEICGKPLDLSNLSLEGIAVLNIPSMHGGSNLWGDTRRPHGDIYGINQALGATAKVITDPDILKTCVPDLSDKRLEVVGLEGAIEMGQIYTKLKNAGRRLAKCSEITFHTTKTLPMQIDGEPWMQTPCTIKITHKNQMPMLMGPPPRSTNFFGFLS
# T1 sequence (Q13574 whole entry): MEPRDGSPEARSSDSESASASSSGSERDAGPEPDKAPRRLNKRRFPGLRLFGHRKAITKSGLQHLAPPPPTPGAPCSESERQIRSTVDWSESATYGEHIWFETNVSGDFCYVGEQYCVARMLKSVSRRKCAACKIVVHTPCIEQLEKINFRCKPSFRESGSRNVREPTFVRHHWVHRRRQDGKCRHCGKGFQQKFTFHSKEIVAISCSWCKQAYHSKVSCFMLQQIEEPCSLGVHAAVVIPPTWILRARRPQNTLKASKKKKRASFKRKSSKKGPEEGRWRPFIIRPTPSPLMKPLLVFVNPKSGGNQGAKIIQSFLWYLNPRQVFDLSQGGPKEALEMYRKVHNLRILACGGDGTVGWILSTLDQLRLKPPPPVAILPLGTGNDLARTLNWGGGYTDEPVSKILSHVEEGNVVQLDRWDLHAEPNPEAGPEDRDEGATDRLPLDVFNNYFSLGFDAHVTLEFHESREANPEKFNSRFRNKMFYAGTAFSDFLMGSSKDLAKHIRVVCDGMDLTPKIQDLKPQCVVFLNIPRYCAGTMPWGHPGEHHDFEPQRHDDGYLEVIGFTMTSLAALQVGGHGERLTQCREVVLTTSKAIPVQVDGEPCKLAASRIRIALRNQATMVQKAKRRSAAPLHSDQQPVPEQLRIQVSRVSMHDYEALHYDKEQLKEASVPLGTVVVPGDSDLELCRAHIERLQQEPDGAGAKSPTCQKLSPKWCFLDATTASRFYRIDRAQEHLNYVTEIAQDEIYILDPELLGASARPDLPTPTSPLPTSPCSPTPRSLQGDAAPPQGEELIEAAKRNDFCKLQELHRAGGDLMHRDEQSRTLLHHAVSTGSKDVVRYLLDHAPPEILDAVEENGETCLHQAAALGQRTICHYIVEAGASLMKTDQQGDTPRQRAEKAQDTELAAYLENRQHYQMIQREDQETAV
SMILES,IC50 (DGKζ),IC50 (DGKα)
"CC[C@@H]1CN(c2nc3nncn3c3cccnc23)[C@@H](C)CN1C(c1ccc(F)cc1)c1nc(C2CC2)no1 (mixture of isomers) [Example 9, 3-Cyclopropyl-5-(((2R,5S)-2-ethyl-5-methyl-4-(pyrido[2,3-e][1,2,4]triazolo[4,3-a]pyrimidin-5-yl)piperazin-1-yl)(4-fluorophenyl)methyl)-1,2,4-oxadiazole]",20 to 200 nM,≤ 20 nM
"CC[C@H]1CN(C(c2ccc(F)cc2)c2ccc(F)cc2)[C@H](CC)CN1c1cc2nncn2c2cccnc12 [Example 7, 5-((2S,5R)-4-(Bis(4-fluorophenyl)methyl)-2,5-diethylpiperazin-1-yl)-[1,2,4]triazolo[4,3-a][1,5]naphthyridine]",20 to 200 nM,≤ 20 nM
"CC[C@H]1CN(C(c2ccc(F)cc2)c2ccc(F)cc2)[C@H](CC)CN1c1nc2nncn2c2cc(-c3cnn(C)c3)cnc12 [Example 6, 5-((2S,5R)-4-(Bis(4-fluorophenyl)methyl)-2,5-diethylpiperazin-1-yl)-8-(1-methyl-1H-pyrazol-4-yl)pyrido[2,3-e][1,2,4]triazolo[4,3-a]pyrimidine]",> 2000 nM,≤ 20 nM
"CC[C@@H]1CN(c2nc3nncn3c3cccnc23)[C@@H](C)CN1C(C(=O)OC)c1ccc(F)cc1 (single isomer, unassigned) [Example 12]",20 to 200 nM,≤ 20 nM
"CC[C@@H]1CN(c2nc3nncn3c3cccnc23)[C@@H](C)CN1C(C(=O)OC)c1ccc(F)cc1 (single isomer, unassigned) [Example 13]",20 to 200 nM,≤ 20 nM
"CC[C@@H]1CN(c2nc3nncn3c3cccnc23)[C@@H](C)CN1C(c1ccc(F)cc1)C(C)(C)O (single isomer, unassigned) [Example 15]",20 to 200 nM,20 to 200 nM
"CC[C@@H]1CN(c2nc3nncn3c3cccnc23)[C@@H](C)CN1Cc1ccc2cc(F)ccc2n1 [Example 10, 5-((2S,5R)-5-Ethyl-4-((6-fluoroquinolin-2-yl)methyl)-2-methylpiperazin-1-yl)pyrido[2,3-e][1,2,4]triazolo[4,3-a]pyrimidine]",20 to 200 nM,≤ 20 nM
"CC[C@@H]1CN(c2nc3nncn3c3cccnc23)[C@@H](C)CN1C(c1ccc(F)cc1)C(C)(C)O (single isomer, unassigned) [Example 14]",200 to 2000 nM,≤ 20 nM

# Other lines, results leading:
IC50 (DGKζ),IC50 (DGKα),SMILES
≤ 20 nM,≤ 20 nM,"CC[C@H]1CN(C(c2ccc(F)cc2)c2ccc(F)cc2)[C@H](CC)CN1c1nc2nncn2c2ccc(C)nc12 [Example 1, 5-((2S,5R)-4-(Bis(4-fluorophenyl)methyl)-2,5-diethylpiperazin-1-yl)-7-methylpyrido[2,3-e][1,2,4]triazolo[4,3-a]pyrimidine]"
≤ 20 nM,≤ 20 nM,"CC[C@H]1CN(C(c2ccc(F)cc2)c2ccc(F)cc2)[C@H](CC)CN1c1nc2nncn2c2ccc(C#N)nc12 [Example 5, 5-((2S,5R)-4-(Bis(4-fluorophenyl)methyl)-2,5-diethylpiperazin-1-yl)pyrido[2,3-e][1,2,4]triazolo[4,3-a]pyrimidine-7-carbonitrile]"
≤ 20 nM,≤ 20 nM,"CC[C@@H]1CN(c2nc3nncn3c3nccnc23)[C@@H](C)CN1C(c1ccc(F)cc1)c1ccc(F)cc1 [Example 8, 5-((2S,5R)-4-(Bis(4-fluorophenyl)methyl)-5-ethyl-2-methylpiperazin-1-yl)-[1,2,4]triazolo[4,3-a]pteridine]"
≤ 20 nM,≤ 20 nM,"CC[C@H]1CN(C(c2ccc(F)cc2)c2ccc(F)cc2)[C@H](CC)CN1c1nc2nnc(C)n2c2cccnc12 [Example 3, 5-((2S,5R)-4-(Bis(4-fluorophenyl)methyl)-2,5-diethylpiperazin-1-yl)-1-methylpyrido[2,3-e][1,2,4]triazolo[4,3-a]pyrimidine]"
≤ 20 nM,≤ 20 nM,"CC[C@H]1CN(C(c2ccc(F)cc2)c2ccc(F)cc2)[C@H](CC)CN1c1nc2nncn2c2nccnc12 [Example 4, 5-((2S,5R)-4-(Bis(4-fluorophenyl)methyl)-2,5-diethylpiperazin-1-yl)-[1,2,4]triazolo[4,3-a]pteridine]"
≤ 20 nM,≤ 20 nM,"CC[C@H]1CN(C(c2ccc(F)cc2)c2ccc(F)cc2)[C@H](CC)CN1c1nc2nncn2c2cccnc12 [Example 2, 5-((2S,5R)-4-(Bis(4-fluorophenyl)methyl)-2,5-diethylpiperazin-1-yl)pyrido[2,3-e][1,2,4]triazolo[4,3-a]pyrimidine]"
≤ 20 nM,≤ 20 nM,"CC[C@@H]1CN(c2nc3nncn3c3cccnc23)[C@@H](C)CN1Cc1cccc2ccccc12 [Example 11, 5-((2S,5R)-5-Ethyl-2-methyl-4-(naphthalen-1-ylmethyl)piperazin-1-yl)pyrido[2,3-e][1,2,4]triazolo[4,3-a]pyrimidine]"
